From PubChem BioAssay AID1259407 (Chemical Carcinogenesis Research Information System (CCRIS), 2018)
Active and inactive are the calls of the source. No rule for the calls is given here.

Tested on: CCRIS mutagenicity, Ames/micronucleus/aberration tests
Experiment: CCRIS mutagenicity studies
[1] = Test System: AMES SALMONELLA TYPHIMURIUM, Strain/Indicator: TA98, Metabolic Activation: NONE, Method: STANDARD PLATE
[2] = Test System: AMES SALMONELLA TYPHIMURIUM, Strain/Indicator: TA1535, Metabolic Activation: NONE, Method: STANDARD PLATE
[3] = Test System: AMES SALMONELLA TYPHIMURIUM, Strain/Indicator: TA1537, Metabolic Activation: NONE, Method: STANDARD PLATE

**Q.** With `C[C@]12CCC(=O)C=C1CC[C@@H]1[C@@H]2CC[C@]2(C)C(=O)CC[C@@H]12` as the compound, how does the mutagenic call (End Point: In vivo micronucleus, Test System: Micronucleated bone marrow polychromatic erythrocytes, Species: Rat, Strain/Sex: F344/N / Male, Route: Oral) read?
**A.** inactive; negative

**Q.** And the mutagenic call (End Point: In vivo micronucleus, Test System: Micronucleated normochromatic erythrocytes in peripheral blood, Species: Mouse, Strain/Sex: B6C3F1/Female, Route: Oral)?
**A.** inactive; negative. (the response was judged equivocal based on a statistically significan

**Q.** What about the mutagenic call (End Point: In vivo micronucleus, Test System: Micronucleated normochromatic erythrocytes in peripheral blood, Species: Mouse, Strain/Sex: B6C3F1/Male, Route: Oral) of the same compound?
**A.** inactive; negative

**Q.** What about the mutagenic call (Test System: Ames Salmonella typhimurium, Strain/Indicator: TA97, Metabolic Activation: Hamster, Liver, S-9, Aroclor 1254 (10%), Method: Preincubation) of the same compound?
**A.** inactive; negative

**Q.** And the mutagenic call (Test System: Ames Salmonella typhimurium, Strain/Indicator: TA97, Metabolic Activation: Hamster, Liver, S-9, Aroclor 1254 (30%), Method: Preincubation)?
**A.** inactive; negative

**Q.** What about the mutagenic call (Test System: Ames Salmonella typhimurium, Strain/Indicator: TA97, Metabolic Activation: None, Method: Preincubation) of the same compound?
**A.** inactive; negative

**Q.** What about the mutagenic call (Test System: Ames Salmonella typhimurium, Strain/Indicator: TA97, Metabolic Activation: Rat, Liver, S-9, Aroclor 1254 (10%), Method: Preincubation) of the same compound?
**A.** inactive; negative

**Q.** What about the mutagenic call (Test System: Ames Salmonella typhimurium, Strain/Indicator: TA97, Metabolic Activation: Rat, Liver, S-9, Aroclor 1254 (30%), Method: Preincubation) of the same compound?
**A.** inactive; negative

**Q.** What about the mutagenic call (Test System: Ames Salmonella typhimurium, Strain/Indicator: TA98, Metabolic Activation: Hamster, Liver, S-9, Aroclor 1254 (10%), Method: Preincubation) of the same compound?
**A.** inactive; negative

**Q.** What about the mutagenic call (Test System: Ames Salmonella typhimurium, Strain/Indicator: TA98, Metabolic Activation: Hamster, Liver, S-9, Aroclor 1254 (30%), Method: Preincubation) of the same compound?
**A.** inactive; negative

**Q.** And the mutagenic call (Test System: Ames Salmonella typhimurium, Strain/Indicator: TA98, Metabolic Activation: None, Method: Preincubation)?
**A.** inactive; negative

**Q.** What about the mutagenic call (Test System: Ames Salmonella typhimurium, Strain/Indicator: TA98, Metabolic Activation: Rat, Liver, S-9, Aroclor 1254 (10%), Method: Preincubation) of the same compound?
**A.** inactive; negative

**Q.** What about the mutagenic call (Test System: Ames Salmonella typhimurium, Strain/Indicator: TA98, Metabolic Activation: Rat, Liver, S-9, Aroclor 1254 (30%), Method: Preincubation) of the same compound?
**A.** inactive; negative

**Q.** What about the mutagenic call (Test System: Ames Salmonella typhimurium, Strain/Indicator: TA100, Metabolic Activation: Hamster, Liver, S-9, Aroclor 1254 (10%), Method: Preincubation) of the same compound?
**A.** inactive; negative

**Q.** What about the mutagenic call (Test System: Ames Salmonella typhimurium, Strain/Indicator: TA100, Metabolic Activation: Hamster, Liver, S-9, Aroclor 1254 (30%), Method: Preincubation) of the same compound?
**A.** inactive; negative

**Q.** What about the mutagenic call (Test System: Ames Salmonella typhimurium, Strain/Indicator: TA100, Metabolic Activation: None, Method: Preincubation) of the same compound?
**A.** inactive; negative

**Q.** And the mutagenic call (Test System: Ames Salmonella typhimurium, Strain/Indicator: TA100, Metabolic Activation: Rat, Liver, S-9, Aroclor 1254 (10%), Method: Preincubation)?
**A.** inactive; negative

**Q.** And the mutagenic call (Test System: Ames Salmonella typhimurium, Strain/Indicator: TA100, Metabolic Activation: Rat, Liver, S-9, Aroclor 1254 (30%), Method: Preincubation)?
**A.** inactive; negative

**Q.** And the mutagenic call (Test System: Ames Salmonella typhimurium, Strain/Indicator: TA1535, Metabolic Activation: Hamster, Liver, S-9, Aroclor 1254 (10%), Method: Preincubation)?
**A.** inactive; negative

**Q.** And the mutagenic call (Test System: Ames Salmonella typhimurium, Strain/Indicator: TA1535, Metabolic Activation: Hamster, Liver, S-9, Aroclor 1254 (30%), Method: Preincubation)?
**A.** inactive; negative

**Q.** And the mutagenic call (Test System: Ames Salmonella typhimurium, Strain/Indicator: TA1535, Metabolic Activation: None, Method: Preincubation)?
**A.** inactive; negative

**Q.** And the mutagenic call (Test System: Ames Salmonella typhimurium, Strain/Indicator: TA1535, Metabolic Activation: Rat, Liver, S-9, Aroclor 1254 (10%), Method: Preincubation)?
**A.** inactive; negative

**Q.** And the mutagenic call (Test System: Ames Salmonella typhimurium, Strain/Indicator: TA1535, Metabolic Activation: Rat, Liver, S-9, Aroclor 1254 (30%), Method: Preincubation)?
**A.** inactive; negative

**Q.** And the mutagenic call (Test System: E. coli, Strain/Indicator: WP2 uvrA/pKM101, Metabolic Activation: None, Method: Preincubation)?
**A.** inactive; negative

**Q.** And the mutagenic call (Test System: E. coli, Strain/Indicator: WP2 uvrA/pKM101, Metabolic Activation: Rat, Liver, S-9, Aroclor 1254 (10%), Method: Preincubation)?
**A.** inactive; negative

**Q.** `CC(C)Nc1nc(Cl)nc(NCC(=O)O)n1` was tested. Which mutagenic call (End Point: In vivo micronucleus, Test System: Bone marrow erythrocytes, Species: Mouse, Strain/Sex: Crl:CD-1, Route: Gavage) did it give?
**A.** inactive; negative; proportion of pces per 1000 erythrocytes depressed

**Q.** Which mutagenic call [1] does the source give for `CC(=O)C(Cl)Cl` here?
**A.** inactive; negative

**Q.** And the mutagenic call (Test System: AMES SALMONELLA TYPHIMURIUM, Strain/Indicator: TA98, Metabolic Activation: RAT, LIVER, S-9, AROCLOR 1254, Method: STANDARD PLATE)?
**A.** inactive; negative

**Q.** What about the mutagenic call (Test System: AMES SALMONELLA TYPHIMURIUM, Strain/Indicator: TA100, Metabolic Activation: NONE, Method: FLUCTUATION TEST) of the same compound?
**A.** active; positive

**Q.** And the mutagenic call (Test System: AMES SALMONELLA TYPHIMURIUM, Strain/Indicator: TA100, Metabolic Activation: RAT, LIVER, S-9, AROCLOR 1254, Method: FLUCTUATION TEST)?
**A.** inactive; negative

**Q.** What about the mutagenic call (Test System: AMES SALMONELLA TYPHIMURIUM, Strain/Indicator: TA100, Metabolic Activation: RAT, LIVER, S-9, AROCLOR 1254, Method: STANDARD PLATE) of the same compound?
**A.** active; positive

**Q.** What about the mutagenic call [2] of the same compound?
**A.** active; positive

**Q.** What about the mutagenic call (Test System: AMES SALMONELLA TYPHIMURIUM, Strain/Indicator: TA1535, Metabolic Activation: RAT, LIVER, S-9, AROCLOR 1254, Method: STANDARD PLATE) of the same compound?
**A.** active; positive

**Q.** And the mutagenic call [3]?
**A.** inactive; negative

**Q.** And the mutagenic call (Test System: AMES SALMONELLA TYPHIMURIUM, Strain/Indicator: TA1537, Metabolic Activation: RAT, LIVER, S-9, AROCLOR 1254, Method: STANDARD PLATE)?
**A.** inactive; negative

**Q.** Which mutagenic call [1] does the source give for `CN(N=O)C(=O)c1c(N(C)N=O)ncn1C` here?
**A.** inactive; negative

**Q.** And the mutagenic call (Test System: AMES SALMONELLA TYPHIMURIUM, Strain/Indicator: TA98, Metabolic Activation: S-9, Method: STANDARD PLATE)?
**A.** inactive; negative

**Q.** And the mutagenic call (Test System: AMES SALMONELLA TYPHIMURIUM, Strain/Indicator: TA100, Metabolic Activation: NONE, Method: STANDARD PLATE)?
**A.** active; positive

**Q.** And the mutagenic call (Test System: AMES SALMONELLA TYPHIMURIUM, Strain/Indicator: TA100, Metabolic Activation: S-9, Method: STANDARD PLATE)?
**A.** active; positive

**Q.** What about the mutagenic call (Test System: AMES SALMONELLA TYPHIMURIUM, Strain/Indicator: TA102, Metabolic Activation: NONE, Method: STANDARD PLATE) of the same compound?
**A.** active; positive

**Q.** And the mutagenic call (Test System: AMES SALMONELLA TYPHIMURIUM, Strain/Indicator: TA102, Metabolic Activation: S-9, Method: STANDARD PLATE)?
**A.** active; positive

**Q.** What about the mutagenic call [2] of the same compound?
**A.** active; positive

**Q.** What about the mutagenic call (Test System: AMES SALMONELLA TYPHIMURIUM, Strain/Indicator: TA1535, Metabolic Activation: S-9, Method: STANDARD PLATE) of the same compound?
**A.** active; positive

**Q.** What about the mutagenic call [3] of the same compound?
**A.** inactive; negative

**Q.** What about the mutagenic call (Test System: AMES SALMONELLA TYPHIMURIUM, Strain/Indicator: TA1537, Metabolic Activation: S-9, Method: STANDARD PLATE) of the same compound?
**A.** inactive; negative

**Q.** Which mutagenic call (Test System: AMES SALMONELLA TYPHIMURIUM, Strain/Indicator: TA97, Metabolic Activation: NONE, Method: PREINCUBATION) does the source give for `COc1cc(C(C)=O)cc(OC)c1O` here?
**A.** inactive; negative

**Q.** And the mutagenic call (Test System: AMES SALMONELLA TYPHIMURIUM, Strain/Indicator: TA97, Metabolic Activation: RAT, LIVER, S-9, AROCLOR 1254, Method: PREINCUBATION)?
**A.** inactive; negative

**Q.** What about the mutagenic call (Test System: AMES SALMONELLA TYPHIMURIUM, Strain/Indicator: TA98, Metabolic Activation: NONE, Method: PREINCUBATION) of the same compound?
**A.** inactive; negative

**Q.** And the mutagenic call (Test System: AMES SALMONELLA TYPHIMURIUM, Strain/Indicator: TA98, Metabolic Activation: RAT, LIVER, S-9, AROCLOR 1254, Method: PREINCUBATION)?
**A.** inactive; negative

**Q.** And the mutagenic call (Test System: AMES SALMONELLA TYPHIMURIUM, Strain/Indicator: TA100, Metabolic Activation: NONE, Method: PREINCUBATION)?
**A.** inactive; negative

**Q.** And the mutagenic call (Test System: AMES SALMONELLA TYPHIMURIUM, Strain/Indicator: TA100, Metabolic Activation: RAT, LIVER, S-9, AROCLOR 1254, Method: PREINCUBATION)?
**A.** inactive; negative

**Q.** What about the mutagenic call (Test System: AMES SALMONELLA TYPHIMURIUM, Strain/Indicator: TA102, Metabolic Activation: NONE, Method: PREINCUBATION) of the same compound?
**A.** inactive; negative

**Q.** And the mutagenic call (Test System: AMES SALMONELLA TYPHIMURIUM, Strain/Indicator: TA102, Metabolic Activation: RAT, LIVER, S-9, AROCLOR 1254, Method: PREINCUBATION)?
**A.** inactive; negative
